Measured values taken from patent EP1382597A2, “Steroid receptor modulator compounds and methods” (LIGAND PHARMACEUTICALS, INC., priority 1994, dated 1996).

How the values were obtained:
AR [1] = biological target: T1, AR (Homo sapiens, UniProt P10275); experiment: Co-transfection assay, AR agonist activity; type: cell-based
T1 construct: expressed in transfected cells; host or cells: CV-1 cells, transient transfection

AR [2] = biological target: T1, AR; experiment: Co-transfection assay, AR antagonist activity; type: cell-based
human PR-B [3] = biological target: T2, human PR-B (Homo sapiens, UniProt P06401); experiment: Co-transfection assay, PR agonist activity; type: cell-based;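 note: CV-1 cells (African green monkey kidney) co-transfected with receptor plasmid and hormone-responsive firefly luciferase reporter, agonism read as compound-dependent rise in luciferase signal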
T2 construct: expressed in transfected cells; host or cells: CV-1 cells (African green monkey kidney fibroblasts), transient transfection
T2 sequence (P06401 1-933): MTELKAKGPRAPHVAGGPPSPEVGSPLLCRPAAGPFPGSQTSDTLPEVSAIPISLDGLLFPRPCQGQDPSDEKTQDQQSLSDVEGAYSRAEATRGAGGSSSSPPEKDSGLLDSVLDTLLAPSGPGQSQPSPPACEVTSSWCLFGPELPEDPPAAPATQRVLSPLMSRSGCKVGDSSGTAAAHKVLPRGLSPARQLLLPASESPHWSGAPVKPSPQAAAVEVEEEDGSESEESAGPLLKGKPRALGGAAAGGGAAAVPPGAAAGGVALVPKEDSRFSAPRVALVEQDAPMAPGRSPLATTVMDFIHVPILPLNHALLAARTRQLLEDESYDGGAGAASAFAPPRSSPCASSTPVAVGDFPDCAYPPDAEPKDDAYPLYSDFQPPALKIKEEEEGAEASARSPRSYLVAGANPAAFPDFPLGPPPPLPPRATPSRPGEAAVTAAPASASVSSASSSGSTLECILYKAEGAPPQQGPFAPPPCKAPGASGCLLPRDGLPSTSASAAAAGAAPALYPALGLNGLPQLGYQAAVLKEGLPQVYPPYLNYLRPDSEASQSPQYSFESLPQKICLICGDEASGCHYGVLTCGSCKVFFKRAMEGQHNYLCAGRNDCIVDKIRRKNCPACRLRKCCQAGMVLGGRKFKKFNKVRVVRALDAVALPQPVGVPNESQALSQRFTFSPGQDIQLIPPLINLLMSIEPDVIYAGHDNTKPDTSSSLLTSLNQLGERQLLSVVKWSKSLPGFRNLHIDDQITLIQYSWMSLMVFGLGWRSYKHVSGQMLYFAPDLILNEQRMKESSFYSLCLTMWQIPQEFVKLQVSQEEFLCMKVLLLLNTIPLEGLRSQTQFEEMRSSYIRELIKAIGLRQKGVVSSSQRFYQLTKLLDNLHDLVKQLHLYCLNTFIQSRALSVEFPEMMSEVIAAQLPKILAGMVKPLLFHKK

human PR-B [4] = biological target: T2, human PR-B; experiment: Co-transfection assay, PR antagonist activity; type: cell-based;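 note: monkey kidney fibroblasts co-transfected with receptor expression plasmid and hormone-responsive luciferase reporter, antagonism read as reduced luciferase signal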
ER = biological target: T3, ER (Homo sapiens, UniProt P03372); experiment: Co-transfection assay, ER antagonist activity; type: cell-based; details: for ER Antagonist CV-1 Cells Efficacy (%): percent maximal inhibition, estradiol at its EC50
T3 construct: expressed in transfected cells; host or cells: CV-1 cells, transient transfection, with MTV-ERE5-LUC reporter
T3 sequence (P03372 whole entry): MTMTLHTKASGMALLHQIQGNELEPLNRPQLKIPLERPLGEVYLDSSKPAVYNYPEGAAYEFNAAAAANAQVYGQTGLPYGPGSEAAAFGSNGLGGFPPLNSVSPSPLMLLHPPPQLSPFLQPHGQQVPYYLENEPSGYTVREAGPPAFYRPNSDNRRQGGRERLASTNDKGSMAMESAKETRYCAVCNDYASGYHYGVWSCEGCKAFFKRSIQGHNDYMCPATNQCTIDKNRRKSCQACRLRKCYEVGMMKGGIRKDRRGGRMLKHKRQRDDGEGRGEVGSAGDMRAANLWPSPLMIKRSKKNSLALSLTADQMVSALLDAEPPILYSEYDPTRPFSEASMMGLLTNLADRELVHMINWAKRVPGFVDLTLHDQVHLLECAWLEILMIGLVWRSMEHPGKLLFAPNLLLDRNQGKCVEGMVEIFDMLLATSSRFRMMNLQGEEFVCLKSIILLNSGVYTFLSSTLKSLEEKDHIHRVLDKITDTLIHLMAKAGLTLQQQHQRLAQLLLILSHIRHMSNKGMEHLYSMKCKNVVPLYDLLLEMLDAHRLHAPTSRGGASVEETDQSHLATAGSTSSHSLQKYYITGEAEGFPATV

AR [5] = biological target: T4, AR (Rattus norvegicus, UniProt P15207); experiment: Immature castrated male rat model (antiandrogen activity); type: in vivo, rats (Sprague-Dawley); details: for %SV growth / %VP growth: 0 mg TP = 100; for SV (wet wt): seminal vesicles
T4 construct: from tissue; host or cells: live Sprague-Dawley rats; ventral prostate and seminal vesicles weighed
T4 sequence (P15207 1-902): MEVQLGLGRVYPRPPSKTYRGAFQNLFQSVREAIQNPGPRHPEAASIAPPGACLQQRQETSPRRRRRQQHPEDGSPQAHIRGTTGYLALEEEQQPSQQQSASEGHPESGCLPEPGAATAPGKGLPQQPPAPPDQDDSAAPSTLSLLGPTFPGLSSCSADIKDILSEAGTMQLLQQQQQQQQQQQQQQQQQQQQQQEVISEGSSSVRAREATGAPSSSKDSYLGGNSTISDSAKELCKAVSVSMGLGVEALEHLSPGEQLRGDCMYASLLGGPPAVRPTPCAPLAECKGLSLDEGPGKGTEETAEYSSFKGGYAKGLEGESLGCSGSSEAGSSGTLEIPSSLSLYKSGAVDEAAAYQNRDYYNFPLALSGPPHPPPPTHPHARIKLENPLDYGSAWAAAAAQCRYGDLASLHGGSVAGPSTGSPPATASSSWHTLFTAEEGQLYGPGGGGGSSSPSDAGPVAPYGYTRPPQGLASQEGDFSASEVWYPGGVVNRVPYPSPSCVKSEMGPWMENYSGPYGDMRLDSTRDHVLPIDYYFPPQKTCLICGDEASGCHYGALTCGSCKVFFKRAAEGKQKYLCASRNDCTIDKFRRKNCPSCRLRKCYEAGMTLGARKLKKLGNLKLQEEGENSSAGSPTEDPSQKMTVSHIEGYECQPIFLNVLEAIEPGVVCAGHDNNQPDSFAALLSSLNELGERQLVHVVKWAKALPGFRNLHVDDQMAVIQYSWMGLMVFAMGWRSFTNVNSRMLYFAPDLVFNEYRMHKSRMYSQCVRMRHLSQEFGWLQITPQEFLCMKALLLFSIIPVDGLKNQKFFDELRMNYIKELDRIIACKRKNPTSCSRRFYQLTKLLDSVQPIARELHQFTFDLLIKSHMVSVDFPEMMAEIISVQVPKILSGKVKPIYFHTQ
Excerpt: Since the male sex organs are the tissues most responsive to modulation of androgen activity, this model is used to determine the androgen-dependent growth of the sex accessory organs in immature castrated rats.
At the end of the 3-day treatment, the animals were sacrificed, and the ventral prostates (VP) and seminal vesicles (SV) were collected and weighed. To compare data from different experiments, the sexual organ weights were first standardized as mg per 100 g of body weight, and the increase in organ weight induced by TP was considered as the maximum increase (100%). Super-anova (one factor) was used for statistical analysis.

[6] = CV-1 cells; relative to reference agonist DHT
[7] = CV-1 cells; percent maximal inhibition, DHT at its EC50
[8] = CV-1, read-out: AR Agonist CV-1 Cells Efficacy (%)
[9] = CV-1, read-out: AR Antagonist CV-1 Cells Efficacy (%)
[10] = 0.01 mg TP once daily for 3 days
[11] = 0.03 mg TP once daily for 3 days
[12] = 0.1 mg TP once daily for 3 days
[13] = 0.3 mg TP once daily for 3 days

T1 sequence (P10275 whole entry): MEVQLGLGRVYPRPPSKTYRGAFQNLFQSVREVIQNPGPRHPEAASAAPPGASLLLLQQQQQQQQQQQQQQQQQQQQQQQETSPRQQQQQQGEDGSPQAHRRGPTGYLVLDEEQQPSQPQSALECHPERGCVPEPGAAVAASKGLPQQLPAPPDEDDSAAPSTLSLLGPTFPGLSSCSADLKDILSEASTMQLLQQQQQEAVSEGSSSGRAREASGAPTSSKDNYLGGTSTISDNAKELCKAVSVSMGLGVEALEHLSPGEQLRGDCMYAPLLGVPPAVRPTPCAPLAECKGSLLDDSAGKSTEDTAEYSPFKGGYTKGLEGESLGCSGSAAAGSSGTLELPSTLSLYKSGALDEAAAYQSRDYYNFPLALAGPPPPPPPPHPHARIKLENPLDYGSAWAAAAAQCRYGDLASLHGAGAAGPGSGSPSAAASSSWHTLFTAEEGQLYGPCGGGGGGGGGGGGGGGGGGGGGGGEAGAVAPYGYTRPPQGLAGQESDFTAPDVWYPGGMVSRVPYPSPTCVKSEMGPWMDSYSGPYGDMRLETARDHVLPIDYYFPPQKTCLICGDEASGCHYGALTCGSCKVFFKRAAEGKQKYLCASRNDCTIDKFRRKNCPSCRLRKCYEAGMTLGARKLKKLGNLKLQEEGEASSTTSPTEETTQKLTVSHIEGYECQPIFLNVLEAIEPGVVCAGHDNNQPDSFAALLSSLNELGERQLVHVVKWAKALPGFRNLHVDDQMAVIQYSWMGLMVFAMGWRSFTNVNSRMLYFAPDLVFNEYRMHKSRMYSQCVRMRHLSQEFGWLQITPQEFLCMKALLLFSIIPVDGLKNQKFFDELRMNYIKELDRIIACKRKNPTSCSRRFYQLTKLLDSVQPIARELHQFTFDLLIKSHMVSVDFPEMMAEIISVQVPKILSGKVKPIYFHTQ

For O=c1cc(C(F)(F)F)c2cc3c(cc2[nH]1)NCC3 [Compound 419, 5-Trifluoromethyl-7-pyridono[5,6-e]indoline], the “AR Agonist CV-1 Cells Efficacy (%)” value (AR [1]; [6]) was 29% and the “AR Antagonist CV-1 Cells Efficacy (%)” value (AR [2]; [7]) was 74%.

CC1CC(C)(C)Nc2cc3[nH]c(=O)cc(C(F)(F)F)c3cc21 (racemic) [Compound 260, 1,2,3,4-Tetrahydro-2,2,4-trimethyl-6-trifluoromethyl-8-pyridono[5,6-g]quinoline] was tested, and the EC50 (human PR-B [3]) was > 10000 nM, the IC50 (human PR-B [4]) was 230 nM and the “AR Antagonist CV-1 Cells Efficacy (%)” value (AR [2]; [7]) was 53%.

In the case of CC1=CC(C)(C)Nc2cc3oc(=O)cc(C(F)(F)F)c3cc21 [Compound 238, 1,2-Dihydro-2,2,4-trimethyl-6-trifluoromethyl-8-pyranono[5,6-g]quinoline], the Emax (AR [1]; [8]) is reported as 96% and the Emax (AR [2]; [9]) is reported as < 20%.

With COc1cccc(C2Oc3ccccc3-c3ccc4c(c32)C(C)=CC(C)(C)N4)c1 (racemic) [Compound 194, (R/S)-1,2-Dihydro-5-(3-methoxyphenyl)-2,2,4-trimethyl-5H-chromeno[3,4-f]quinoline] the IC50 (ER) was 390 nM and the “ER Antagonist CV-1 Cells Efficacy (%)” value (ER) was 94%.

With CC1=CC(C)(C)Nc2cc3[nH]c(=O)cc(C(F)(F)F)c3cc21 [Compound 247, 1,2-Dihydro-2,2,4-trimethyl-6-trifluoromethyl-8-pyridono[5,6-g]quinoline] the “AR Agonist CV-1 Cells Efficacy (%)” value (AR [1]; [6]) was 23% and the “AR Antagonist CV-1 Cells Efficacy (%)” value (AR [2]; [7]) was 69%.

In the case of CC1C(=O)C(C)(C)Nc2cc3[nH]c(=O)cc(C(F)(F)F)c3cc21 (racemic) [Compound 418, (R/S)-1,2,3,4-tetrahydro-6-trifluoromethyl-2,2,4-trimethyl-8-pyridono[5,6-f]-3-quinolinone], the Emax (AR [1]; [8]) is reported as < 20% and the Emax (AR [2]; [9]) is reported as 63%.

In the case of CC1CC(C)(C)Nc2cc3oc(=O)cc(-c4ccoc4)c3cc21 (racemic) [Compound 405, (R/S)-5-(3-Furyl)-1,2,3,4-tetrahydro-2,2,4-trimethyl-8-pyranono[5,6-g]quinoline], the Emax (AR [1]; [8]) is reported as < 20% and the Emax (AR [2]; [9]) is reported as 89%.

CCC(=O)O[C@H]1CC[C@H]2[C@@H]3CCC4=CC(=O)CC[C@]4(C)[C@H]3CC[C@]12C [TP, Testosterone Propionate] was tested, and the “%SV growth” value (AR [5]; [10]) was 165.1%, the “%VP growth” value (AR [5]; [10]) was 146.5% and the “VP (wet wt)” value (AR [5]; 0.01 mg TP once daily for 3 days, castrated immature rats, ventral prostate (organ weights standardized as mg per 100 g body weight)) was 15.4±0.6. For the same molecule, the “SV (wet wt)” value (AR [5]; [10]) was 12.3±0.8, the “%SV growth” value (AR [5]; [11]) was 369.5% and the “%VP growth” value (AR [5]; [11]) was 224.1%. For the same molecule, the “SV (wet wt)” value (AR [5]; [11]) was 27.5±0.8, the “VP (wet wt)” value (AR [5]; 0.03 mg TP once daily for 3 days, ventral prostate) was 23.5±1.3 and the “SV (wet wt)” value (AR [5]; 0.1 mg TP once daily for 3 days (Table 8)) was 42.0±2.0. The “VP (wet wt)” value (AR [5]; 0.1 mg TP once daily for 3 days (Table 8), ventral prostate) was 35.3±2.1, the “%SV growth” value (AR [5]; [12]) was 563.8% and the “%VP growth” value (AR [5]; [12]) was 337.0%. For the same molecule, the “%SV growth” value (AR [5]; [13]) was 616.1%, the “%VP growth” value (AR [5]; [13]) was 415.9% and the “SV (wet wt)” value (AR [5]; [13]) was 45.9±1.9. For the same molecule, the “VP (wet wt)” value (AR [5]; 0.3 mg TP once daily for 3 days, ventral prostate) was 43.6±1.1, the “%SV growth” value (AR [5]; 1 mg TP once daily for 3 days) was 684.6% and the “%VP growth” value (AR [5]; 1 mg TP once daily for 3 days) was 427.4%. The “SV (wet wt)” value (AR [5]; 1 mg TP once daily for 3 days) was 51.0±5.4, the “VP (wet wt)” value (AR [5]; 1 mg TP once daily for 3 days, ventral prostate) was 44.8±3.7 and the “SV wt (% of TP (0.1) control)” value (AR [5]; TP (0.1) alone (Table 9)) was 100%. For the same molecule, the “VP wt (% of TP (0.1) control)” value (AR [5]; TP (0.1) alone (Table 9)) was 100%, the “SV (wet wt)” value (AR [5]; TP (0.1) alone (Table 9), 3 days) was 33.6±4.0 and the “VP (wet wt)” value (AR [5]; TP (0.1) alone (Table 9), 3 days, ventral prostate) was 25.5±1.2. For the same molecule, the “EC50 (increase in organ wet weights)” value (AR [5]; immature castrated rats, dosing for 3 days, VP and SV) was ~0.03 mg.

With CC1=CC(C)(C)Nc2cc3c(cc21)c(C(F)(F)F)cc(=O)n3C [Compound 261, 1,2-Dihydro-2,2,4,9-tetramethyl-6-trifluoromethyl-8-pyridono[5,6-g]quinoline] the “effect on testosterone-mediated increases in the weights of VP and SV” value (AR [5]; administered simultaneously with 0.1 mg of TP) was “exhibited AR antagonist activity by suppressing the testosterone-mediated increases in the weights of the VP and SV”.

CC1=CC(C)(C)Nc2ccc3c(c21)C(c1cccc(F)c1)Oc1ccccc1-3 (racemic) [Compound 191, (R/S)-5-(3-Fluorophenyl)-1,2-dihydro-2,2,4-trimethyl-5H-chromeno[3,4-f]quinoline] gave an Emax (human PR-B [3]; CV-1, read-out: PR Agonist CV-1 Cells Efficacy (%)) of 26%, an Emax (human PR-B [4]; CV-1, read-out: PR Antagonist CV-1 Cells Efficacy (%)) of 74% and an IC50 (AR [2]) of 520 nM. The IC50 (ER) was 330 nM and the “ER Antagonist CV-1 Cells Efficacy (%)” value (ER) was 93%.

In the case of CC1(C)CNc2cc3[nH]c(=O)cc(C(F)(F)F)c3cc2C1 [Compound 437, 1,2,3,4-Tetrahydro-3,3-dimethyl-6-trifluoromethyl-8-pyridono[5,6-g]quinoline], the Emax (AR [1]; CV-1; read-out: AR Agonist CV-1 Cells Efficacy (%)) is reported as < 20% and the Emax (AR [2]; CV-1; read-out: AR Antagonist CV-1 Cells Efficacy (%)) is reported as 72%.

For CC1=CC(C)(C)Nc2cc3oc(=O)cc(C(F)(F)C(F)(F)F)c3cc21 [Compound 256, 1,2-Dihydro-2,2,4-trimethyl-6-(1,1,2,2,2-pentafluoroethyl)-8-pyranono[5,6-g]quinoline], the Emax (AR [1]; [8]) was < 20% and the Emax (AR [2]; [9]) was 91%.

For CCC1CCNc2cc3oc(=O)cc(C(F)(F)F)c3cc21 (racemic) [Compound 414, (R/S)-4-Ethyl-1,2,3,4-tetrahydro-6-trifluoromethyl-8-pyranono[5,6-g]quinoline], the Emax (AR [1]; [8]) was 118% and the Emax (AR [2]; [9]) was < 20%.

CC1=CC(C)(C)N(C)c2cc3oc(=O)cc(C(F)(F)F)c3cc21 [Compound 265, 1,2-Dihydro-1,2,2,4-tetramethyl-6-trifluoromethyl-8-pyranono[5,6-g]quinoline] was tested, and the Emax (AR [1]; [8]) was < 20% and the Emax (AR [2]; [9]) was 78%.
